What was measured:
[1] = test system: glyphosate-tolerant, dicamba-sensitive soy plants; assay: Humidome volatility injury to dicamba-sensitive plants (Example 31); settings: assessed after three weeks in greenhouse
Source text: In this case, the diglycolamine salt of dicamba (CLARITY®) was used for comparison.
Dicamba photo-labile ester formulations from Example 28 were mixed with a commercial glyphosate formulation (ROUNDUP POWERMAX®) and diluted to provide a solution with a 0.5% dicamba equivalent concentrate of the ester (or dicamba diglycolamine salt) and 1.5% concentrate of glyphosate. The mixtures were sprayed at a 10 gallon per acre (93.5 liters per hectare) rate on soil in a plastic container (“humidome”) with a transparent lid. One soil container was sprayed with water as a control. Four glyphosate-tolerant, dicamba-sensitive soy plants between V2 and V3 stage were immediately placed on the sprayed soil and the domes attached to the trays with binder clips. The soy plants were in pots placed directly on the soil but with aluminum foil wrapped around the bottom to prevent uptake of dicamba or dicamba esters through the roots.
The closed containers were held for 24 hours in a growth chamber which was maintained at 35° C. with 40% relative humidity. The plants were then removed and grown in a greenhouse for three weeks. At this time plant injury and growth stage were assessed compared to the control treated with water only.

[2] = test system: Euphorbia species; assay: Field testing for post-emergent activity in the Southern Hemisphere (Example 39); assay type: in vivo; settings: 9 as suspension concentrate, other esters as emulsifiable concentrates
Outline: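 Southern Hemisphere field trial, post-emergence application on Euphorbia weeds. Esters applied as emulsifiable concentrates in aromatic solvent with emulsifiers, one ester as a suspension concentrate. Dicamba diglycolamine salt served as comparator.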

[3] = test system: morning glory; assay: Field testing of emulsifiable concentrates, post-emergent control (Example 38); assay type: in vivo
[4] = test system: velvetleaf; assay: as above; assay type: in vivo
[5] = test system: hemp sesbania; assay: as above; assay type: in vivo
[6] = In vitro dicamba photo-release from photo-labile dicamba esters, tetrahydrofuran solvent (Example 26); assay type: physicochemical; settings: THF, 0.1 mM ester
Outline: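 Esters at 0.1 mM in THF, sealed in quartz tubes and exposed to simulated sunlight 14 h per day at 35 °C. Dicamba released was measured over the photolysis, with an unilluminated sample of the starting solution serving as dark control.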

[7] = test system: broadleaf weeds; assay: Control of broadleaf weeds by ester concentrates (statements of the description); assay type: in vivo
[8] = In vitro photo-release and hydrolytic release of dicamba in an aqueous medium (Example 35); assay type: physicochemical; settings: 0.01 mM ester, 35° C.
[9] = test system: velvetleaf; assay: Greenhouse post-emergent control of velvetleaf by emulsifiable concentrates (Example 29); assay type: in vivo; settings: three weeks after treatment
Outline: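 Greenhouse velvetleaf 10–15 cm tall sprayed post-emergence with photo-labile ester emulsifiable concentrates at 140, 280, 420 and 560 g dicamba equivalent/ha, alongside dicamba diglycolamine salt at the same rates and untreated plants. Percent control scored three weeks after treatment.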

[10] = 280 and 420 g dicamba acid equivalent per hectare
[11] = 280 g dicamba acid equivalent per hectare, 11 or 21 days after treatment
[12] = 420 g dicamba acid equivalent per hectare, 11 or 21 days after treatment

SMILES: COc1c(Cl)ccc(Cl)c1C(=O)OCc1ccccc1[N+](=O)[O-] [Ester 1a, 2-Nitrobenzyl Ester of Dicamba]
- % Injury ([1]; soy plants 24 hours in closed humidome over sprayed soil (0.5% dicamba equivalent + 1.5% glyphosate), 35° C.): 8%
- Growth Stage ([1]; soy plants 24 hours in closed humidome over sprayed soil): 8
- % control, 0.25 lb/ac (0.28 kg/hectare) ([2]; 0.25 lb dicamba a.e. per acre): 72%
- % control, 0.50 lb/ac (0.56 kg/hectare) ([2]; 0.50 lb dicamba a.e. per acre): 78%
- post-emergent control of morning glory compared with the dicamba salt, in words [3, 10]: equivalent to the dicamba salt
- % control, 280 g/ha, Morning glory [3, 11]: 100%
- % control, 420 g/ha, Morning glory [3, 12]: 98%
- post-emergent control of velvetleaf compared with the dicamba salt, in words [4, 10]: equivalent to the dicamba salt
- % control, 280 g/ha, Velvetleaf [4, 11]: 86%
- % control, 420 g/ha, Velvetleaf [4, 12]: 92%
- post-emergent control of hemp sesbania compared with the dicamba salt, in words [5, 10]: equivalent to the dicamba salt
- % control, 280 g/ha, Hemp sesbania [5, 11]: 95%
- % control, 420 g/ha, Hemp sesbania [5, 12]: 98%
- Dark Control % dicamba ([6]; initial solution kept away from the light source, analyzed at conclusion of study): 1%
- Conversion to dicamba, 1 day ([6]; simulated sunlight 14 hours per day, 35° C., 1 day): 22%
- Conversion to dicamba, 2 days ([6]; simulated sunlight 14 hours per day, 35° C., 2 days): 33%
- Conversion to dicamba, 3 days ([6]; simulated sunlight 14 hours per day, 35° C., 3 days): 47%
- Conversion to dicamba, 5 days ([6]; simulated sunlight 14 hours per day, 35° C., 5 days): 66%
- Conversion to dicamba, 7 days ([6]; simulated sunlight 14 hours per day, 35° C., 7 days): 76%
- control of a number of broadleaf weeds in field testing, in words ([7]; emulsifiable and suspension concentrates, Sesbania macrocarpa, morning glory, velvetleaf, Palmer amaranth, fat hen, sicklepod): proven effective
- field efficacy for control of broadleaf weeds compared with the diglycolamine salt of dicamba, in words ([7]; field tests of emulsifiable concentrates): slightly more effective than the diglycolamine salt of dicamba
- Conversion to Dicamba, Dark, Day 0 ([8]; amber (dark) bottle, Day 0): 7%
- Conversion to Dicamba, Dark, Day 1 ([8]; amber (dark) bottle, Day 1): 8%
- Conversion to Dicamba, Dark, Day 2 ([8]; amber (dark) bottle, Day 2): 8%
- Conversion to Dicamba, Dark, Day 3 ([8]; amber (dark) bottle, Day 3): 8%
- Conversion to Dicamba, Dark, Day 4 ([8]; amber (dark) bottle, Day 4): 7%
- Conversion to Dicamba, Dark, Day 7 ([8]; amber (dark) bottle, Day 7): 8%
- Conversion to dicamba, Dark, Day 10 ([8]; amber (dark) bottle, Day 10): 8%
- Conversion to Dicamba, Dark, Day 14 ([8]; amber (dark) bottle, Day 14): 8%
- Conversion to Dicamba, Dark, Day 21 ([8]; amber (dark) bottle, Day 21): 8%
- Conversion to Dicamba, Dark, Day 28 ([8]; amber (dark) bottle, Day 28): 8%
- Conversion to Dicamba, Light, Day 0 ([8]; quartz tube, 14-hour day, Day 0): 7%
- Conversion to Dicamba, Light, Day 1 ([8]; quartz tube, 14-hour day, Day 1): 13%
- Conversion to Dicamba, Light, Day 2 ([8]; quartz tube, 14-hour day, Day 2): 16%
- Conversion to Dicamba, Light, Day 3 ([8]; quartz tube, 14-hour day, Day 3): 18%
- Conversion to Dicamba, Light, Day 4 ([8]; quartz tube, 14-hour day, Day 4): 21%
- Conversion to Dicamba, Light, Day 7 ([8]; quartz tube, 14-hour day, Day 7): 29%
- Conversion to dicamba, Light, Day 10 ([8]; quartz tube, 14-hour day, Day 10): 37%
- Conversion to Dicamba, Light, Day 14 ([8]; quartz tube, 14-hour day, Day 14): 54%
- Conversion to Dicamba, Light, Day 21 ([8]; quartz tube, 14-hour day, Day 21): 75%
- Conversion to Dicamba, Light, Day 28 ([8]; quartz tube, 14-hour day, Day 28): 107%
- % Control of velvetleaf, 140 g/ha ([9]; 140 g dicamba equivalent per hectare): 46%
- % Control of velvetleaf, 280 g/ha ([9]; 280 g dicamba equivalent per hectare): 60%
- % Control of velvetleaf, 420 g/ha ([9]; 420 g dicamba equivalent per hectare): 75%
- % Control of velvetleaf, 560 g/ha ([9]; 560 g dicamba equivalent per hectare): 73%

From patent US20170029355A1, “LABILE ESTERS OF AGROCHEMICALS FOR CONTROLLED RELEASE AND REDUCTION OF OFF-SITE MOVEMENT” (Monsanto Technology LLC, priority 2011, published 2017)
